Data: patent US20240344241A1, “PROTEINACEOUS MOLECULES AND USES THEREFOR” (THE UNIVERSITY OF QUEENSLAND, priority 2021, published 2024)
Bridge positions count the residues as written; N and C are the ends. Peptide text beside a SMILES is read from it.

Legend:
human whole blood = experiment: Activated clotting time (ACT) in human whole blood; details: 10 μM, human whole blood
Description: (§1) The anticoagulant activity of cyclic MCoFx7 was determined in human whole blood using two assays: activated clotting time (ACT) and rotational thromboelastometry (ROTEM). In ACT assays, the clotting time (y-axis) was increased in a dose-dependent manner from the control (124 s), reaching 223 s with 20 μM MCoFx7. […] Anticoagulant activity was verified by thromboelastometry (TEM) that was measured after activation of the intrinsic pathway (INTEM) (refer to FIG. 16). […] By comparison, a single concentration of cyclic [A25P]MCoFx7 (10 μM) produced a clotting time of 500 s, similar to cyclic MCoFx7 at 10 μM (469 s).
(§2) Activated clotting time (ACT) was measured in fresh whole blood using celite tubes with the Hemochron 401 coagulation analyzer (Soma Technology, Bloomfield, CT, USA). Whole blood clot formation was recorded by ROTEM® Thromboelastometry (Haemoview Diagnostics, Brisbane, Australia) using INTEM (contact factor-initiated coagulation) and HEPTEM (contact factor-initiated coagulation with heparinase) activating reagents according to the manufacturer's instructions.

Human β-FXIIa [1] = target: T1, Human β-FXIIa (Homo sapiens, UniProt P00748); experiment: FXIIa competitive inhibition assay, fluorescent substrate Boc-QGR-MCA; format: biochemical
T1 construct: Human β-FXIIa was obtained from Molecular Innovations, together with human FXa, human FXIa, human α-thrombin, and human plasma kallikrein; purchased Molecular Innovations; host or cells: purified from human plasma
Description: Cyclic [I7F]MCoFx1 (also referred to as cyclic MCoFx6) was synthesized using solid phase peptide synthesis ([[…]] [SEQ ID NO: 97]). For this inhibitor, Tyr33 was mutated back to serine as per the original mRNA display screen (FIG. 1). Cyclic MCoFx6 was screened using a competitive inhibition assay, with the substrate being changed from a colorimetric substrate (Ac-QRFR-pNA in the data of Tables 7 and 10) to a fluorescent substrate (Boc-QGR-MCA) to allow the assay to be run with a lower concentration of enzyme. The assay was performed as described for Examples 2 and 3, except that the FXIIa concentration was 0.5 nM and the substrate concentration was 50 μM (KM=187 μM).
The new variants were screened using competitive inhibition assays, with the substrate being changed from a colorimetric substrate (Ac-QRFR-pNA in the data of Tables 7 and 10) to a fluorescent substrate (Boc-QGR-MCA) to allow the assay to be run with a lower concentration of enzyme. Assays were performed as described for Examples 2 and 3, except that the FXIIa concentration was 0.5 nM and the substrate concentration was 50 μM (KM=187 μM). […] The effect of amino acid substitutions within loop 2 (Arg12, Arg13), loop 5 (Ala25, Arg27) or loop 6 (Asp34) on the activity of cyclic MCoFx7 against FXIIa was determined (refer to Table 14). […] Additionally, mutating Arg to Glu (reversing the side chain charge) only led to two-fold weaker activity. The adjacent residue Arg13 could also be mutated to Lys with no change in activity. Within loop 5, mutating Ala25 to Lys produced a slight gain in activity, whereas the Ala to Pro mutation led to a slight decrease in activity. Both mutations at Arg27 led to losses in activity in the order of two-fold (His) or 3.2-fold (Gly).
(§3) The activity of acyclic and cyclic MCoFx1-5 and analogues thereof was assessed in competitive inhibition assays, as previously described in Swedberg et al. (2016) J Med Chem, 59: 7287-7292. Human β-FXIIa was obtained from Molecular Innovations, together with human FXa, human FXIa, human α-thrombin, and human plasma kallikrein. Human cationic trypsin and human plasmin were obtained from Sigma-Aldrich, and recombinant human matriptase was sourced from R&D Systems. Recombinant human urokinase (uPA) and recombinant human tissue plasminogen activator (tPA) were expressed in Expi293 cells, as previously described in Li et al. (2019) Chembiochem, 20: 46-50. FXIIa inhibition assays were performed in clear, low-binding 96-well plates using 250 μL (final volume) of assay buffer (0.1 M Tris-HCl pH 8.0, 0.1 M NaCl, 10 mM CaCl2 and 0.005% Triton X-100). Inhibitors were serially diluted and incubated with 10 nM FXIIa at room temperature to reach equilibrium. After adding 100 μM Ac-QRFR-pNA substrate (KM=162 μM), enzymatic activity was measured by monitoring release of the pNA moiety using a TECAN infinite M1000 Pro plate reader (A=405 nm, reading interval, 10 s; assay time course, 7 min). Assays were conducted in three times in duplicate. Substrate kinetic constants (Michaelis-Menten) and inhibition constants (Morrison K) were determined by non-linear regression using Prism 7 (GraphPad). Selectivity assays with off-target proteases were performed in a similar way, except that different concentrations of enzyme and substrate were used, as indicated in Table 16. For assays using a fluorescent substrate (peptide-4-methylcoumaryl-7-amide, MCA), black low-binding 96-well plates were used and activity was measured using a TECAN infinite M1000 pro plate reader (λex 360 nm, λem 460 nm, reading interval, 30 s; assay time course, 5-30 min).

[2] = test system: human whole blood, intrinsic pathway (INTEM); experiment: Rotational thromboelastometry INTEM in human whole blood; details: 10 μM
Description: as §1, §2

Rec. human matriptase = target: T2, Rec. human matriptase (Homo sapiens, UniProt Q9Y5Y6); experiment: Matriptase inhibition assay; format: biochemical
T2 construct: purchased R&D Systems
T2 sequence (Q9Y5Y6 615-855 limits assumed): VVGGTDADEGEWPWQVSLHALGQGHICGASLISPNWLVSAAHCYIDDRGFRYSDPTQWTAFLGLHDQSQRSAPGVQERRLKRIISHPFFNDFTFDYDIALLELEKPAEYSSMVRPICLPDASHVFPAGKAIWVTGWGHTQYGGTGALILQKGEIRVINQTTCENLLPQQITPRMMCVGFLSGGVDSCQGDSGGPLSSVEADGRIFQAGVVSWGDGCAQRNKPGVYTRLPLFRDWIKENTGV
Description: as §3

Human trypsin = target: T3, Human trypsin (Homo sapiens, UniProt P07477); experiment: Trypsin competitive inhibition assay; format: biochemical
T3 construct: purchased Sigma-Aldrich; host or cells: purified from human tissue
Description: as §3

Human β-FXIIa [3] = target: T1, Human β-FXIIa; experiment: FXIIa competitive inhibition assay, colorimetric substrate Ac-QRFR-pNA; format: biochemical
Method in brief: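 Serially diluted inhibitors equilibrated at room temperature with 10 nM β-FXIIa in 0.1 M Tris-HCl pH 8.0, 0.1 M NaCl, 10 mM CaCl2, 0.005% Triton X-100; 100 μM Ac-QRFR-pNA (KM=162 μM), A405 over 7 min. Off-target proteases used differing enzyme/substrate levels, some with fluorogenic MCA substrates (ex 360/em 460 nm, 5-30 min). Morrison Ki by non-linear regression.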

Human plasmin = target: T4, Human plasmin (Homo sapiens, UniProt P00747); experiment: Plasmin inhibition assay; format: biochemical
T4 construct: Human cationic trypsin and human plasmin were obtained from Sigma-Aldrich, and recombinant human matriptase was sourced from R&D Systems; purchased Sigma-Aldrich; host or cells: purified from human plasma
Description: as §3

[4] = test system: clotting via the extrinsic pathway; experiment: Prothrombin time (PT) assay in human plasma; format: biochemical; details: at 10 μM
Description: (§4) Citrated, platelet-poor plasma samples from healthy adults were collected, prepared, and stored using previously established collection protocols, such as in Zdenek et al. (2019) Toxicol in Vitro, 58: 97-109.
(§5) Standard coagulation assays were used to determine the effect of the inhibitors on the clotting time of human plasma. Activated partial thromboplastin time (aPTT) uses a Kaolin reagent (clay) to activate the intrinsic/contact pathway of the coagulation cascade, whereas prothrombin time (PT) uses Neoplastine (lyophilized thromboplastin prepared from rabbit cerebral tissue) to activate the extrinsic/tissue-factor pathway of the coagulation cascade. A minor adjustment was made to both tests (addition of 25 μL inhibitor or buffer; refer to Table 17) to accommodate the addition of an inhibitor without changing the total volume (and therefore relative ratios of additives) of the assay. Concentrations of inhibitor are reported as the concentration at the point of incubation in the assay, i.e. not taking into account the addition of the start reagent (calcium for aPTT, or Neoplastine for PT).
(§6) Clotting time (seconds) of plasma was automatically measured using a STA-R Max® analyzer (Stago, Asnieres sur Seine, France). Measurements were conducted using a viscosity-based (mechanical) detection system, whereby opposing magnets oscillate a small metal spherical pellet inside the test cuvette (250 μL total volume) until a clot is formed. Dilution of the inhibitor in Owren-Koller (OK) buffer for dose-response curves was performed automatically by the machine. Reagents were kept at 15-19° C. in the machine during experimentation and otherwise stored at 4° C. All tests were performed in triplicate.

Human thrombin = target: T5, Human thrombin (Homo sapiens, UniProt P00734); experiment: Thrombin inhibition assay; format: biochemical
T5 construct: Human β-FXIIa was obtained from Molecular Innovations, together with human FXa, human FXIa, human α-thrombin, and human plasma kallikrein; purchased Molecular Innovations; host or cells: purified from human plasma
Description: as §3

Stability in human serum = details: human serum, 37° C., up to 24 h
Description: Briefly, peptides were incubated at a final concentration of 30 μM in human serum (human male AB serum, Sigma-Aldrich) at 37° C. for 0, 1, 12 and 24 h. The reaction was stopped at designated times, with the serum proteins being denatured by addition of two volumes of acetonitrile (v/v). The samples were then spun at 17,000 g for 10 min and the amount of peptide in the supernatant was quantified using analytical HPLC. The percentage of peptide remaining at 1, 12 and 24 h was calculated using the area of the serum-treated peptide peak from 0 h as 100%.

Rec. human uPA = target: T6, Rec. human uPA (Homo sapiens, UniProt P00749); experiment: uPA inhibition assay; format: biochemical
T6 construct: made in house; host or cells: Expi293 cells
Description: as §3

Human plasma kallikrein = target: T7, Human plasma kallikrein (Homo sapiens, UniProt P03952); experiment: Plasma kallikrein inhibition assay; format: biochemical
T7 construct: Human β-FXIIa was obtained from Molecular Innovations, together with human FXa, human FXIa, human α-thrombin, and human plasma kallikrein; purchased Molecular Innovations; host or cells: purified from human plasma
Description: as §3

Rec. human tPA = target: T8, Rec. human tPA (Homo sapiens, UniProt P00750); experiment: tPA inhibition assay; format: biochemical
T8 construct: made in house; host or cells: Expi293 cells
Description: as §3

[5] = test system: clotting via the intrinsic pathway; experiment: Activated partial thromboplastin time (aPTT) assay in human plasma; format: biochemical
Description: as §4, §5, §6

Human FXIa = target: T9, Human FXIa (Homo sapiens, UniProt P03951); experiment: FXIa inhibition assay; format: biochemical
T9 construct: Human β-FXIIa was obtained from Molecular Innovations, together with human FXa, human FXIa, human α-thrombin, and human plasma kallikrein; purchased Molecular Innovations; host or cells: purified from human plasma
Description: as §3

Human FXa = target: T10, Human FXa (Homo sapiens, UniProt P00742); experiment: FXa inhibition assay; format: biochemical
T10 construct: Human β-FXIIa was obtained from Molecular Innovations, together with human FXa, human FXIa, human α-thrombin, and human plasma kallikrein; purchased Molecular Innovations; host or cells: purified from human plasma
Description: as §3

T7 sequence (P03952 391-638 limits assumed): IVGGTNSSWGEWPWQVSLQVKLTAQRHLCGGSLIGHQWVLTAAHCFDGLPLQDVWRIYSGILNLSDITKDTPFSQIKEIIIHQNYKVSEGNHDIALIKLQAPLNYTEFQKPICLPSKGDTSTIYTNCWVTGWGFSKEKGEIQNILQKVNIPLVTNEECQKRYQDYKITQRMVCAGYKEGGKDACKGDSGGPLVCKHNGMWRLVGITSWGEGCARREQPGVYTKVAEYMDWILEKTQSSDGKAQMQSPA
T7 sequence (P03952 20-390 partner limits assumed): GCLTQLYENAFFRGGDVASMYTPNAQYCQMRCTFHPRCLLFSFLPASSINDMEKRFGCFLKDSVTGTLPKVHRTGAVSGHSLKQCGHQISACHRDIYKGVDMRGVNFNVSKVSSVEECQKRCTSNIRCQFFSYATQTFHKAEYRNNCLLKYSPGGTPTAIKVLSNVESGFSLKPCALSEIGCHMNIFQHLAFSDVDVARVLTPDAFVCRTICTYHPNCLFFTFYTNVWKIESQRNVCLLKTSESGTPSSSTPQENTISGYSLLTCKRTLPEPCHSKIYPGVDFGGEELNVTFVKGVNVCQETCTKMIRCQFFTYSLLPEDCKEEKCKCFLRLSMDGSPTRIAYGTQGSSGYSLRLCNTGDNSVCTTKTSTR
T9 sequence (P03951 388-625 limits assumed): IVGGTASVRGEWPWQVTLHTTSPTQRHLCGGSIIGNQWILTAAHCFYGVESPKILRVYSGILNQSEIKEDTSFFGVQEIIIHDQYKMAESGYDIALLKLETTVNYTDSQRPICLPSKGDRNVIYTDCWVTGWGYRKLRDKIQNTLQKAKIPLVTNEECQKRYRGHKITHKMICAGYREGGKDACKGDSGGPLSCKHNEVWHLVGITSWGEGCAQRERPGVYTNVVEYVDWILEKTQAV
T9 sequence (P03951 19-387 partner limits assumed): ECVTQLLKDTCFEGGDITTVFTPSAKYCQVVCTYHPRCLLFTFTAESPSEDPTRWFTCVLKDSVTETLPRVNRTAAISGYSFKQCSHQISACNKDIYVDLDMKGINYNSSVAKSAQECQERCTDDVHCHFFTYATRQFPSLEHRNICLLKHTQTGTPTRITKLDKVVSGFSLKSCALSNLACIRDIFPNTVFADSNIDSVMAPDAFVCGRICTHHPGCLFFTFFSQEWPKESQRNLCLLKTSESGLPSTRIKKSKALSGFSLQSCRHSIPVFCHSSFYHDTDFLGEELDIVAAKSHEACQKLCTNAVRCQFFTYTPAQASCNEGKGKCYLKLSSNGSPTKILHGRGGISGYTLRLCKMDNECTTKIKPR
T1 sequence (P00748 373-615 limits assumed, other chains not shown): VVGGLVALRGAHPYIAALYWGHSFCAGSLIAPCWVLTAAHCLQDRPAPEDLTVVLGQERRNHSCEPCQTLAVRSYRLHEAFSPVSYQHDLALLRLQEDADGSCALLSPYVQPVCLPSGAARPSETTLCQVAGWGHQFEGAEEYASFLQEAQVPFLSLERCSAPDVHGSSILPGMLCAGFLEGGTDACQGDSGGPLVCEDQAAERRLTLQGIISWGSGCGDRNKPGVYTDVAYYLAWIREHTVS
T8 sequence (P00750 36-562): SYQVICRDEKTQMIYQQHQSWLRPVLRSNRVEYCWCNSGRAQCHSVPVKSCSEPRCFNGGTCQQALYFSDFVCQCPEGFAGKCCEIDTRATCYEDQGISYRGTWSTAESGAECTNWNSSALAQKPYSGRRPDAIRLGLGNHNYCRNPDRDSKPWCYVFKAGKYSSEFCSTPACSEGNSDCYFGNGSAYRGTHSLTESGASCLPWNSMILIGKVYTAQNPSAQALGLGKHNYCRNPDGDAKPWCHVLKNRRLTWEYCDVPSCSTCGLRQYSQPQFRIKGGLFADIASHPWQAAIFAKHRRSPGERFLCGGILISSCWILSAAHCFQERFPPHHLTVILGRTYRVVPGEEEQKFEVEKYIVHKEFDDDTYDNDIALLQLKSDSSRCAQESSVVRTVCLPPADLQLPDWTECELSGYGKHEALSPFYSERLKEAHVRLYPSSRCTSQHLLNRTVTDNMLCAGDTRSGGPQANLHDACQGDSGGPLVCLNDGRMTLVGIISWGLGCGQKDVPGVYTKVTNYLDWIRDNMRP
T10 sequence (P00742 235-488 limits assumed): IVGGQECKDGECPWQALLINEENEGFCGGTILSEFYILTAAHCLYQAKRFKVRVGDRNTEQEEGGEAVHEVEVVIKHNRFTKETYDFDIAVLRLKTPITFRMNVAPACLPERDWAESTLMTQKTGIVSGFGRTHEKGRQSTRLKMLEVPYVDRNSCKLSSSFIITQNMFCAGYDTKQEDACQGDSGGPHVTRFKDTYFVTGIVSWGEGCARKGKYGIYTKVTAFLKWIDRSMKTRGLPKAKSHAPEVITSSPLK
T10 sequence (P00742 41-179 partner limits assumed): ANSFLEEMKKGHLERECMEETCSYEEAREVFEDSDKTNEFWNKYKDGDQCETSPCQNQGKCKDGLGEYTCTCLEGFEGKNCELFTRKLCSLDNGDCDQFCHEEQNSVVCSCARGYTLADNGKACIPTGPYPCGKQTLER
T4 sequence (P00747 581-810 limits assumed): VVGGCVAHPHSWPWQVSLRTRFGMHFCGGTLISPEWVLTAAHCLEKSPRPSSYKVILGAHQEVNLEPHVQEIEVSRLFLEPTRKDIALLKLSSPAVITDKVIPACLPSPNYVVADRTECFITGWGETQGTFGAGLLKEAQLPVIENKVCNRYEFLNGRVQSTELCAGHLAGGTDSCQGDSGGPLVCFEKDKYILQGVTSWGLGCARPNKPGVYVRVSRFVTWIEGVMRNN
T4 sequence (P00747 97-580 partner limits assumed): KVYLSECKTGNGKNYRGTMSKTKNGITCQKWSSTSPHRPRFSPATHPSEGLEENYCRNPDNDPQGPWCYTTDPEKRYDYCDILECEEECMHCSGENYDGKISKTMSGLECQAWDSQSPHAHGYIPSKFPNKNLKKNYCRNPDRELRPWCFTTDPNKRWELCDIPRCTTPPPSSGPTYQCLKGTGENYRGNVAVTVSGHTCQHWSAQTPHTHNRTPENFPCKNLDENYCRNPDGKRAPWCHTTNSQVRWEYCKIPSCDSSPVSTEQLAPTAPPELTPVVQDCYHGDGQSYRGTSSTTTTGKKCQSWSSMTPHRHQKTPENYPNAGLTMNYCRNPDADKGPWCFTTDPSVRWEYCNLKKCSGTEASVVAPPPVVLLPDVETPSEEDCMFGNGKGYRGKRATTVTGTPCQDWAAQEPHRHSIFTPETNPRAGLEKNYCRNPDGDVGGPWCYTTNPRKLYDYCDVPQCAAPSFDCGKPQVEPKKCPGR

## CC[C@H](C)[C@@H]1NC(=O)CNC(=O)CNC(=O)[C@H](CC(=O)O)NC(=O)[C@H](CO)NC(=O)CNC(=O)[C@H](CO)NC(=O)CNC(=O)[C@@H]2CSSC[C@@H]3NC(=O)[C@H](CC(=O)O)NC(=O)[C@H](CO)NC(=O)[C@H](CC(=O)O)NC(=O)[C@H](CCCNC(=N)N)NC(=O)[C@H](CCCNC(=N)N)NC(=O)[C@@H]4CSSC[C@H](NC(=O)[C@H]([C@@H](C)CC)NC(=O)[C@H](CSSC[C@H](NC1=O)C(=O)N1CCC[C@H]1C(=O)N[C@@H](CCCNC(=N)N)C(=O)N[C@@H]([C@@H](C)CC)C(=O)NCC(=O)N[C@@H](CCCNC(=N)N)C(=O)N[C@@H](CC(C)C)C(=O)N4)NC(=O)[C@H](C)NC(=O)CNC(=O)[C@@H]1CCCN1C3=O)C(=O)N[C@@H](CCCNC(=N)N)C(=O)N1CCC[C@H]1C(=O)N[C@@H]([C@@H](C)O)C(=O)N[C@@H](CCCNC(=N)N)C(=O)N[C@@H](Cc1ccccc1)C(=O)N2 [Cyclic [A25P]MCoFx7] (cyclo(ACICRPTRFCGSGSDGGICPRIGRLCRRDSDCPG); disulfide 2-19, 4-26, 10-32)
Human whole blood
  ACT clotting time: 186 s
Human β-FXIIa [1]
  Ki: 0.093 ± 0.005 nM
[2]
  INTEM clotting time: 500 s

## CC[C@H](C)[C@@H]1NC(=O)CNC(=O)CNC(=O)[C@H](CC(=O)O)NC(=O)[C@H](CO)NC(=O)CNC(=O)[C@H](CO)NC(=O)CNC(=O)[C@@H]2CSSC[C@@H]3NC(=O)[C@H](CC(=O)O)NC(=O)[C@H](CO)NC(=O)[C@H](CC(=O)O)NC(=O)[C@H](CCCNC(=N)N)NC(=O)[C@H](CCCNC(=N)N)NC(=O)[C@@H]4CSSC[C@H](NC(=O)[C@H]([C@@H](C)CC)NC(=O)[C@H](CSSC[C@H](NC1=O)C(=O)N1CCC[C@H]1C(=O)N[C@@H](CCCNC(=N)N)C(=O)N[C@@H]([C@@H](C)CC)C(=O)NCC(=O)N[C@@H](CCCNC(=N)N)C(=O)N[C@@H](CC(C)C)C(=O)N4)NC(=O)[C@H](C)NC(=O)CNC(=O)[C@@H]1CCCN1C3=O)C(=O)N[C@@H](CCCNC(=N)N)C(=O)NCC(=O)N[C@@H](CC(N)=O)C(=O)NCC(=O)N[C@@H](Cc1ccc(O)cc1)C(=O)N2 [cMCoTI-fxL1] (cyclo(ACICRGNGYCGSGSDGGICPRIGRLCRRDSDCPG); disulfide 2-19, 4-26, 10-32)
Rec. human matriptase
  Ki: 2210 nM
Human trypsin
  Ki: 996 nM
Human β-FXIIa [3]
  Ki: 0.69 nM
Human plasmin
  IC50: > 5000 nM
Human plasmin; read-out: percent inhibition Plasmin
  inhibition at 5 µM: 19%
[4]
  clotting time compared to control, PT assay: No significant differences in clotting time compared to control assays
Human thrombin
  IC50: > 5000 nM
Human thrombin; read-out: percent inhibition Thrombin
  inhibition at 5 µM: 1%
Stability in human serum
  resistance to serum proteases (in words): highly resistant to serum proteases
Rec. human uPA
  IC50: > 5000 nM
Rec. human uPA; read-out: percent inhibition uPA
  inhibition at 5 µM: 0%
Human plasma kallikrein
  IC50: > 5000 nM
Human plasma kallikrein; read-out: percent inhibition Plasma kallikrein
  inhibition at 5 µM: 0%
Rec. human tPA
  IC50: > 5000 nM
Rec. human tPA; read-out: percent inhibition tPA
  inhibition at 5 µM: 1%
[5]
  EC2× (concentration required to double the clotting time): 500 nM
Human FXIa
  IC50: > 5000 nM
Human FXIa; read-out: percent inhibition FXIa
  inhibition at 5 µM: 1%
Human FXa
  IC50: > 5000 nM
Human FXa; read-out: percent inhibition FXa
  inhibition at 5 µM: 0%
